Assays:
Large crabgrass [1] = assay: Upland pot test, pre-/post-emergence spray, visual rating; type: in vivo, large crabgrass (DIGSA); conditions: 2 weeks after spray, 0-10 scale (10=completely killed)
Excerpt: (§1) To a rectangular plastic pot having a surface area of 300 cm^2, mixed soils including blend bed soil (Boonong, Horticultural Bed Soil No. 3) and sandy loam soil were filled (mixing ratio, 1:1). Seeds of the eight different types of weeds including gramineous weed such as barnyardgrass, large crabgrass, green foxtail, fall panicum, and broadleaf weed such as common cocklebur, velvetleaf, Indian joint-vetch, and morningglory were sown. To the other pot containing the same soil mixture, seeds of the five different types of crops including corn, soybean, cotton, wheat and rice were sown. Pots were kept in a greenhouse of which temperature was maintained at 25˜30° C. (day) or 15˜25° C. (night), and regularly watered.
(§2) After fourteen days and when the crops and the weeds reached their three-leaf stage, the other set of a crop pot and a weed pot were prepared by the same method as described above. Then, “test substance” was sprayed thereto. In this case, spray treatment to the plants after they have grown for two weeks corresponded to post-emergence treatment while spray treatment to the seeds right after the sowing corresponded to pre-emergence treatment. Spray was carried out by using a track sprayer (R&D Sprayer, USA) equipped with a Teejet 8002 nozzle (Spraying Systems Co., USA). Spray volume was adjusted to 300 L/ha. The spray solution was prepared by dissolving the “test substance” in acetone and adding the same volume of 0.2% (v/v) Tween 20 aqueous solution. Dosage of the test substance was 500, 250, 125, 62.5 or 31.3 g/ha. Two weeks after the spray of the test substance, efficacy and phytotoxic effect to the crops and the weeds were visually measured based on a 0 to 10 scale (0: no efficacy, 10: completely killed).

Fall panicum = assay: as above; type: in vivo, fall panicum (PANDI); conditions: 2 weeks after spray, 0-10 scale (10=completely killed)
Excerpt: as §1, §2

[2] = system: all types of the turfgrasses; assay: Turfgrass safety test, all turfgrasses as a group; type: in vivo
Excerpt: (§3) Commercially available sod mats of zoysiagrass and bentgrass, Kentucky bluegrass, and perennial ryegrass were purchased. After cutting each turf sod mat in a size of 10 cm×20 cm, it was transplanted to a rectangular plastic pot having a surface area of 300 cm^2 wherein mixed soils including blend of a bed soil (Boonong, Horticultural Nursery Soil No. 3) and sandy loam soil were filled (mixing ratio, 1:1). After transplanting, the grass was mowed (0.5˜1.0 cm in height) once a week, and kept for one month in a greenhouse maintained at 25˜30° C. (day) or 15˜25° C. (night), then the test substance of the present invention was applied at dosage of 4, 2, 1 and 0.5 kg/ha. As a reference, Dithiopyr (32% EC, manufactured by Dongbu Hannong Chemical Company, KOREA) was applied at the recommended rate of 0.48 kg/ha, or twice or quadruple amount thereof, i.e., 0.96 and 1.92 kg/ha, respectively. Spray was made by a track sprayer equipped with a Teejet 8002 nozzle. Spray volume was adjusted to 2,000 L/ha, which was a typical value for an Asian (Korea and Japan) golf course. The spray solution was prepared by dissolving the “test substance” in acetone and adding the same volume of 0.2% (v/v) Tween 20 aqueous solution. Two, four or six weeks after the spray of the test substance, phytotoxicity to the turfgrass were visually evaluated based on 0 to 10 scale (0: no phytotoxic effect, 10: completely killed). The test was conducted in a randomized block design with a three replicates and the results were summarized in the following Table 2 is an average value of the replicates.

Large crabgrass [3] = assay: Upland pot test, pre-/post-emergence spray, visual rating; type: in vivo, large crabgrass (DIGSA); conditions: pre-emergence application, 0.06~0.12 kg/ha
Zoysiagrass = assay: Turfgrass safety test (sod mat pots), visual phytotoxicity; type: in vivo, Zoysia japonica; conditions: in vivo
Excerpt: as §3

Foxtail = assay: Upland pot test, pre-/post-emergence spray, visual rating; type: in vivo, green foxtail (SETVI); conditions: 2 weeks after spray, 0-10 scale (10=completely killed)
Excerpt: as §1, §2

Wheat = assay: as above; type: in vivo, wheat (TRIAZ); conditions: for Visual measurement: Crops, Wheat: 2 weeks after spray, 0-10 scale (10=completely killed)
Excerpt: as §1, §2

[4] = post-emergence foliar spray at three leaf stage, 31.2 g/ha
[5] = post-emergence foliar spray at three leaf stage, 62.5 g/ha
[6] = post-emergence foliar spray at three leaf stage, 125 g/ha
[7] = post-emergence foliar spray at three leaf stage, 250 g/ha
[8] = post-emergence foliar spray at three leaf stage, 500 g/ha
[9] = pre-emergence soil treatment, 31.2 g/ha
[10] = pre-emergence soil treatment, 62.5 g/ha
[11] = pre-emergence soil treatment, 125 g/ha
[12] = pre-emergence soil treatment, 250 g/ha
[13] = pre-emergence soil treatment, 500 g/ha

Cc1ccsc1C1=NOC(C)(COCc2c(F)cccc2F)C1 (stereo not shown) [test substance, 5-(2,6-difluorobenzyl)oxymethyl-5-methyl-3-(4-methylthiophen-5-yl)-1,2-isoxazoline]
Visual measurement: Gramineous weed, Large crabgrass (Large crabgrass [1]; [4]): 1 | Visual measurement: Gramineous weed, Large crabgrass (Large crabgrass [1]; [5]): 3 | Visual measurement: Gramineous weed, Large crabgrass (Large crabgrass [1]; [6]): 5 | Visual measurement: Gramineous weed, Large crabgrass (Large crabgrass [1]; [7]): 6 | Visual measurement: Gramineous weed, Large crabgrass (Large crabgrass [1]; [8]): 9 | Visual measurement: Gramineous weed, Large crabgrass (Large crabgrass [1]; [9]): 1 | Visual measurement: Gramineous weed, Large crabgrass (Large crabgrass [1]; [10]): 9 | Visual measurement: Gramineous weed, Large crabgrass (Large crabgrass [1]; [11]): 9 | Visual measurement: Gramineous weed, Large crabgrass (Large crabgrass [1]; [12]): 10 | Visual measurement: Gramineous weed, Large crabgrass (Large crabgrass [1]; [13]): 10 | Visual measurement: Gramineous weed, Fall panicum (Fall panicum; [4]): 0 | Visual measurement: Gramineous weed, Fall panicum (Fall panicum; [5]): 1 | Visual measurement: Gramineous weed, Fall panicum (Fall panicum; [6]): 3 | Visual measurement: Gramineous weed, Fall panicum (Fall panicum; [7]): 6 | Visual measurement: Gramineous weed, Fall panicum (Fall panicum; [8]): 8 | Visual measurement: Gramineous weed, Fall panicum (Fall panicum; [9]): 5 | Visual measurement: Gramineous weed, Fall panicum (Fall panicum; [10]): 8 | Visual measurement: Gramineous weed, Fall panicum (Fall panicum; [11]): 9 | Visual measurement: Gramineous weed, Fall panicum (Fall panicum; [12]): 9 | Visual measurement: Gramineous weed, Fall panicum (Fall panicum; [13]): 10 | Phytotoxicity to turfgrasses (in words) ([2]; 1~2 kg/ha, compared to Dithiopyr at 0.48 kg/ha): negligible phytotoxicity | Safety to all types of the turfgrasses (in words) ([2]; 4 kg/ha): excellent safety | Phytotoxic effect to turfgrasses (in words) ([2]; dosage the same or less than 0.5 kg/ha): almost no phytotoxic effect | Control of large crabgrass (in words) (Large crabgrass [3]): almost completely | Phytotoxic effect, visual assessment: Zoysiagrass Week 6 (Zoysiagrass; Zoysia japonica (zoysiagrass), 6 weeks): 0.0 | Phytotoxic effect, visual assessment: Zoysiagrass Week 2 (Zoysiagrass): 2.7 | Phytotoxic effect, visual assessment: Zoysiagrass Week 4 (Zoysiagrass): 1.7 | Phytotoxic effect, visual assessment: Zoysiagrass Week 6 (Zoysiagrass): 1.0 | Phytotoxic effect, visual assessment: Zoysiagrass Week 2 (Zoysiagrass; zoysiagrass (Zoysia japonica), 2 weeks): 0.0 | Phytotoxic effect, visual assessment: Zoysiagrass Week 4 (Zoysiagrass; zoysiagrass (Zoysia japonica), 4 weeks): 0.0 | Phytotoxic effect, visual assessment: Zoysiagrass Week 6 (Zoysiagrass; zoysiagrass (Zoysia japonica), 6 weeks): 0.0 | Visual measurement: Gramineous weed, Foxtail (Foxtail; [4]): 0 | Visual measurement: Gramineous weed, Foxtail (Foxtail; [5]): 1 | Visual measurement: Gramineous weed, Foxtail (Foxtail; [6]): 2 | Visual measurement: Gramineous weed, Foxtail (Foxtail; [7]): 5 | Visual measurement: Gramineous weed, Foxtail (Foxtail; [8]): 9 | Visual measurement: Gramineous weed, Foxtail (Foxtail; [9]): 1 | Visual measurement: Gramineous weed, Foxtail (Foxtail; [10]): 3 | Visual measurement: Gramineous weed, Foxtail (Foxtail; [11]): 9 | Visual measurement: Gramineous weed, Foxtail (Foxtail; [12]): 9 | Visual measurement: Gramineous weed, Foxtail (Foxtail; [13]): 10 | Visual measurement: Crops, Wheat (Wheat; [4]): 0 | Visual measurement: Crops, Wheat (Wheat; [5]): 0 | Visual measurement: Crops, Wheat (Wheat; [6]): 0 | Visual measurement: Crops, Wheat (Wheat; [7]): 0 | Visual measurement: Crops, Wheat (Wheat; [8]): 0 | Safety to wheat (in words) (Wheat; post-emergence treatment): safe | Visual measurement: Crops, Wheat (Wheat; [9]): 0 | Visual measurement: Crops, Wheat (Wheat; [10]): 0 | Visual measurement: Crops, Wheat (Wheat; [11]): 0 | Visual measurement: Crops, Wheat (Wheat; [12]): 0 | Visual measurement: Crops, Wheat (Wheat; [13]): 0

Reference: patent US8445409B2, “Use of 5-benzyloxymethyl-1,2-isoxazoline derivatives as a herbicide” (Moghu Research Center Ltd., priority 2007, dated 2013)
